Test results from patent US20090028818A1, “Heterocyclic antiviral compounds” (Roche Palo Alto LLC, priority 2007, published 2009).
pIC50: −log10 of the molar value.

system: NLBal pseudotyped HIV-1; assay: Antiviral assay, luciferase reporter in JC53BL cells; format: cell-based; conditions: Human immunodeficiency virus 1, JC53BL, 72 h, read-out: Antiviral Assay IC50
Experimental: The sensitivity of a recombinant HIV-1 virus pseudotyped with the envelope proteins of the CCR5-tropic virus NLBal to test compounds was determined in a Luciferase reporter assay using JC53BL cells. NLBal pseudotyped HIV-1 was generated by calcium phosphate transfection of 293T cells (ATCC) with equal amounts of DNA of an envelope-deleted HIV-1 plasmid and of a NLBal envelope expression plasmid. The media (DMEM, 10% fetal bovine serum, 1% Penicillin/streptomycin, 1% Glutamine, all Gibco) was changed 16 h post-transfection and virus containing supernatant was harvested 48 h post-transfection. To determine the sensitivity of NLBal pseudotyped HIV-1, 25.000 JC53BL cells (NIH AIDS Reagent Program) were infected with NLBal pseudotyped HIV-1 in presence of a drug gradient in white 96 well plates (Greiner Bio-one). The volume was adjusted to 200 μL using assay media (DMEM, 10% fetal bovine serum, 1% Penicillin/streptomycin, 1% Glutamine). After incubation at 37° C., 90% relative humidity, 5% CO2 for 3 days, 50 μL of Steady-Glo® Luciferase reagent (Promega) was added, incubated for 5 min at RT and luminescence was measured using a luminometer (Luminoskan, Thermo). The 50% and 90% inhibitory concentrations were calculated using Microsoft XL Fit 4 software.

Compound	pIC50
CCCCC1CN(C2CCOCC2)C(=O)N1C1CCN(C2(C)CCN(C(=O)c3c(C)cc(C#N)nc3C)CC2)CC1 (stereo not shown) [I-1, 5-{4-[5-Butyl-2-oxo-3-(tetrahydro-pyran-4-yl)-imidazolidin-1-yl]-4′-methyl-[1,4′]bipiperidinyl-1′-carbonyl}-4,6-dimethyl-pyridine-2-carbonitrile]	7.70

system: collagen-induced arthritis; assay: not given; conditions: collagen-induced arthritis model; cited from earlier work

Compound	incidence and severity of arthritis
TAK-779	reduce both the incidence and severity of arthritis

target: T1, Human CCR5 receptor (Homo sapiens, UniProt P51681); assay: Human CCR5 receptor-ligand binding assay; conditions: CHO-Gα16-hCCR5 cells, 125I RANTES radioligand
T1 construct: expressed in transfected cells
T1 sequence (P51681 whole entry): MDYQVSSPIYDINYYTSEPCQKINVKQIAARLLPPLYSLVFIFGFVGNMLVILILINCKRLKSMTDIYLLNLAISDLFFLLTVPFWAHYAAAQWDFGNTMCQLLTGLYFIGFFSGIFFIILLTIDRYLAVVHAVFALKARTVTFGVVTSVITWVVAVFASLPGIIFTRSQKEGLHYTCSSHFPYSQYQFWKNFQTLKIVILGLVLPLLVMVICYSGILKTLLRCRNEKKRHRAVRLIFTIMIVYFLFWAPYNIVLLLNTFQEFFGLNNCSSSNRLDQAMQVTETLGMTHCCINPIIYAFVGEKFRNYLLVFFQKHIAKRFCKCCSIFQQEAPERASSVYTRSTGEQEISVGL
Excerpt: Human CCR5 receptor (Genebank ID: 29169292) was cloned into mammalian expression vector, pTarget (Promega). The construct was transfected into CHO-Gα16 cells by using Fugene Reagent (Roche). Clones were selected under antibiotic pressure (G418 and Hygromycin) and sorted 4 times with a fluorescence activates cell sorter and a monoclonal antibody specific for CCR5 receptor (BD Biosciences Pharmigen, Mab 2D7, Cat. No. 555993). The clone with highest expression (100,000 copies per cell) was chosen for the binding assays.
Adherent cells in […] tissue culture flask (˜90% confluent) were harvested using 1 mM EDTA in PBS (phosphate-buffered saline) without Ca^2+ and Mg^2+. Cells were washed twice with PBS containing no Ca^2+ and Mg^2+. CHO-Gα16-hCCR5 cells were then resuspended (1×10^6/mL) in ice cold binding buffer (50 mM HEPES, 1 mM CaCl2, 5 mM MgCl2, 0.5% BSA, 0.05% NaN3, pH 7.24), pH 7.4), supplemented with freshly made 0.5% BSA and 0.05% NaN3.
Eighty μl CHO-Gα16-hCCR5 (1×10^6/mL) cells were added to 96 well plates. All dilutions were made in binding buffer (50 mM HEPES, 1 mM CaCl2, 5 mM MgCl2, 0.5% BSA, 0.05% NaN3, pH 7.24).
The plates were incubated on a cell shaker at RT for 2 h with a final concentration of 0.1 nM ^125I RANTES or ^125I MIP-1α or ^125I MIP-1β. The compound dilutions were made in PBS, 1% BSA. Total reaction volume was 100 μl per well. The test compounds were added to the cells prior to the addition of radioligand.
After incubation, the cells were harvested onto GF/C filter plates using Packard cell harvester. Filters were pretreated with 0.3% PEI/0.2% BSA for 30 min. The filter plate was washed rapidly 5 times with 25 mM HEPES, 500 mM NaCl, 1 mM CaCl2 and 5 mM MgCl2 adjusted to pH 7.1. Plates were dried in oven (70° C.) for 20 min, added with 40 μl scintillation fluid and sealed with Packard TopSeal-A. Packard Top Count was used to measure of the radioactivity for 1 min per well.
Total binding was determined with control wells added with radioisotope and buffer and the non-specific binding was determined using an excess cold RANTES to some of the control wells. Specific binding was determined by subtracting the non-specific form total binding. Results are expressed as the percentage of specific ^125I RANTES binding. IC50 values were determined using varying concentrations of the test ligand in triplicates and the data was analyzed using GraphPad Prism (GraphPad, San Diego, Calif.). c, […]

Compound	pIC50
CCCCC1CN(C2CCOCC2)C(=O)N1C1CCN(C2(C)CCN(C(=O)c3c(C)cc(C#N)nc3C)CC2)CC1 (stereo not shown) [I-1, 5-{4-[5-Butyl-2-oxo-3-(tetrahydro-pyran-4-yl)-imidazolidin-1-yl]-4′-methyl-[1,4′]bipiperidinyl-1′-carbonyl}-4,6-dimethyl-pyridine-2-carbonitrile]	8.07
CCCCC1CN(C2CCOCC2)C(=O)N1C1CCN(C2(C)CCN(C(=O)c3c(C)ncnc3C)CC2)CC1 (stereo not shown) [I-2]	6.01
CCCCC1CN(CC2CCOCC2)C(=O)N1C1CCN(C2(C)CCN(C(=O)c3c(C)ncnc3C)CC2)CC1 (stereo not shown) [I-3, 4-Butyl-3-[1′-(4,6-dimethyl-pyriridine-5-carbonyl)-4′-methyl-[1,4′]bipiperidinyl-4-yl]-1-(tetrahydro-pyran-4-ylmethyl)-imidazolidin-2-one]	6.96
CCCCC1CN(CC2CCOCC2)C(=O)N1C1CCN(C2(C)CCN(C(=O)c3c(C)cc(C#N)nc3C)CC2)CC1 (stereo not shown) [I-4]	8.36
Cc1ncnc(C)c1C(=O)N1CCC(C)(N2CCC(N3C(=O)N(CC4CCOCC4)C[C@H]3c3ccccc3)CC2)CC1 [I-5, (R)-3-[1′-(4,6-Dimethyl-pyrimidine-5-carbonyl)-4′-methyl-[1 ,4′]bipiperidinyl-4-yl]-4-phenyl-1-(tetrahydro-pyran-4-ylmethyl)-imidazolidin-2-one]	7.63
Cc1ncnc(C)c1C(=O)N1CCC(C)(N2CCC(N3C(=O)N(CC4CCOCC4)CC3c3ccccc3)CC2)CC1 (stereo not shown) [I-6, 3-[1′-(4,6-Dimethyl-pyrimidine-5-carbonyl)-4′-methyl-[1,4′]bipiperidinyl-4-yl]-4-phenyl-1-(tetrahydro-pyran4-ylmethyl)-imidazolidin-2-one]	7.56
Cc1cc(C#N)nc(C)c1C(=O)N1CCC(C)(N2CCC(N3C(=O)N(CC4CCOCC4)C[C@H]3c3ccccc3)CC2)CC1 [I-7]	7.95
Cc1noc(C(F)(F)F)c1C(=O)N1CCC(C)(N2CCC(N3C(=O)N(CC4CCOCC4)C[C@H]3c3ccccc3)CC2)CC1 [I-8]	8.29
CCO[C@H]1CC[C@H](CN2C[C@@H](c3ccccc3)N(C3CCN(C4(C)CCN(C(=O)c5c(C)ncnc5C)CC4)CC3)C2=O)CC1 [I-9]	7.90
CCO[C@H]1CC[C@H](CN2C[C@@H](c3ccccc3)N(C3CCN(C4(C)CCN(C(=O)c5c(C)cc(C#N)nc5C)CC4)CC3)C2=O)CC1 [I-10]	7.97
CCO[C@H]1CC[C@H](CN2C[C@@H](c3ccccc3)N(C3CCN(C4(C)CCN(C(=O)c5c(C)noc5C(F)(F)F)CC4)CC3)C2=O)CC1 [I-11]	8.17
Cc1cc(C#N)nc(C)c1C(=O)N1CCC(C)(N2CCC(N3C(=O)N(C4CCOCC4)C[C@H]3c3ccccc3)CC2)CC1 [I-12]	7.05
Cc1ncnc(C)c1C(=O)N1CCC(C)(N2CCC(N3C(=O)N(C4CCOCC4)C[C@H]3c3ccccc3)CC2)CC1 [I-13]	7.05
Cc1ncnc(C)c1C(=O)N1CCC(C)(N2CCC(N3C(=O)N(CC4CCN(CC(F)F)CC4)C[C@H]3c3ccccc3)CC2)CC1 [I-14, (R)-1-[1-(2,2-Difluoro-ethyl)-piperidin-4-ylmethyl]-3-[1′-(4,6-dimethyl-pyrimidine-5-carbonyl)-4′-methyl-[1,4′]bipiperidinyl-4-yl]-4-phenyl-imidazolidin-2-one]	7.58
Cc1cc(C#N)nc(C)c1C(=O)N1CCC(C)(N2CCC(N3C(=O)N(CC4CCN(CC(F)F)CC4)C[C@H]3c3ccccc3)CC2)CC1 [I-15]	7.74
COC(=O)N1CCC(CN2C[C@@H](c3ccccc3)N(C3CCN(C4(C)CCN(C(=O)c5c(C)ncnc5C)CC4)CC3)C2=O)CC1 [I-16, 4-{(R)-3-[1′-(4,6-Dimethyl-pyrimidine-5-carbonyl)-4′-methyl-[1,4′]bipiperidinyl-4-yl]-2-oxo-4-phenyl-imidazolidin-1-ylmethyl}-piperidine-1-carboxylic acid methyl ester]	7.59
COC(=O)N1CCC(CN2C[C@@H](c3ccccc3)N(C3CCN(C4(C)CCN(C(=O)c5c(C)cc(C#N)nc5C)CC4)CC3)C2=O)CC1 [I-17]	7.45
Cc1cc(C#N)nc(C)c1C(=O)N1CCC(C)(N2CCC(N3C(=O)N(CC4CCN(S(C)(=O)=O)CC4)C[C@H]3c3ccccc3)CC2)CC1 [I-18, 5-{4-[(R)-3-(1-Methanesulfonyl-piperidin4-ylmethyl)-2-oxo-5-phenyl-imidazolidin-1-yl]-4′-methyl-[1,4′]bipiperidinyl-1′-carbonyl}-4,6-dimethyl-pyridine-2-carbonitrile]	7.44
Cc1ncnc(C)c1C(=O)N1CCC(C)(N2CCC(N3C(=O)N(CC4CCN(S(C)(=O)=O)CC4)C[C@H]3c3ccccc3)CC2)CC1 [I-19]	6.93
CC(=O)N1CCC(CN2C[C@@H](c3ccccc3)N(C3CCN(C4(C)CCN(C(=O)c5c(C)cc(C#N)nc5C)CC4)CC3)C2=O)CC1 [I-20, 5-{4-[(R)-3-(1-Acetyl-piperidin-4-ylmethyl)-2-oxo-5-phenyl-imidazolidin-1-yl]-4′-methyl-[1,4′]bipiperidinyl-1′-carbonyl}-4,6-dimethyl-pyridine-2-carbonitrile]	7.37
Cc1cc(C#N)nc(C)c1C(=O)N1CCC(C)(N2CCC(N3C(=O)N(CC4CCN(C(N)=O)CC4)C[C@H]3c3ccccc3)CC2)CC1 [I-21, 4-{(R)-3-[1′-(6-Cyano-2,4-dimethyl-pyridine-3-carbonyl)-4′-methyl-[1,4′]bipiperidinyl-4-yl]-2-oxo-4-phenyl-imidazolidin-1-ylmethyl}-piperidine-1-carboxylic acid amide]	7.36
Cc1cc(C#N)nc(C)c1C(=O)N1CCC(C)(N2CCC(N3C(=O)N(C4CCC(O)CC4)C[C@H]3c3ccccc3)CC2)CC1 (stereo partly drawn) [I-23, 5-{4-[(R)-3-(4-Hydroxy-cyclohexyl)-2-oxo-5-phenyl-imidazolidin-1-yl]-4′-methyl-[1,4′]bipiperidinyl-1′-carbonyl}-4,6-dimethyl-pyridine-2-carbonitrile]	7.69
Cc1noc(C(F)(F)F)c1C(=O)N1CCC(C)(N2CCC(N3C(=O)N(C[C@H]4CC[C@H](O)CC4)C[C@H]3c3ccccc3)CC2)CC1 [I-24, (R)-1-(4-Hydroxy-cyclohexylmethyl)-3-[4′-methyl-1′-(3-methyl-5-trifluoromethyl-isoxazole-4-carbonyl)-[1,4′]bipiperidinyl-4-yl]-4-phenyl-imidazolidin-2-one]	8.15
Cc1cc(C#N)nc(C)c1C(=O)N1CCC(C)(N2CCC(N3C(=O)N(CC4CCOC4)CC3c3ccccc3)CC2)CC1 (stereo not shown) [I-25]	7.26
CCO[C@H]1CC[C@H](CN2C[C@@H](c3ccccn3)N(C3CCN(C4(C)CCN(C(=O)c5c(C)cc(C#N)nc5C)CC4)CC3)C2=O)CC1 [I-26, 5-{4-[(S)-3-(4-Ethoxy-cyclohexylmethyl)-2-oxo-5-pyridin-2-yl-imidazolidin-1-yl]-4′-methyl-[1,4′]bipiperidinyl-1′-carbonyl}-4,6-dimethyl-pyridine-2-carbonitrile]	7.61
Cc1ncnc(C)c1C(=O)N1CCC(C)(N2CCC(N3C(=O)N(CC4CCOCC4)CC3c3cccc(F)c3)CC2)CC1 (stereo not shown) [I-27]	7.05
